Data published in paper PMC10350922, “Allosteric Inhibitors of Macrophage Migration Inhibitory Factor (MIF) Interfere with Apoptosis-Inducing Factor (AIF) Co-Localization to Prevent Parthanatos” (Journal of Medicinal Chemistry, 2023).
Like-named read-outs stand apart in the source and are kept apart here.

Assays:
MIF [1] = target: T1, MIF (Homo sapiens, UniProt P14174); experiment: Jump dilution assay (reversibility of binding); type: biochemical; conditions: 25 μM 6y, 10 min preincubation, 20-fold dilution, 20 min
T1 construct: made in house; host or cells: Escherichia coli BL21, pET-20b(p) plasmid
T1 sequence (P14174 2-115 limits assumed): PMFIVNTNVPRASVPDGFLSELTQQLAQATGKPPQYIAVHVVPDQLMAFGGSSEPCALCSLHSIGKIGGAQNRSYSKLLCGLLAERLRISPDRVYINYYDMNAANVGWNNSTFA
Procedure: To investigate the reversibility of binding, we performed the activity recovery experiment based on pre-incubation of MIF with the inhibitor at saturated concentration followed by jump dilution. The experiment aimed to study the reversibility of the MIF complex with 6y; thus, MIF was preincubated with 25 μM 6y for 10 min before 20-fold dilution and then tested for residual enzyme activity. After 20 min of residence time, MIF tautomerase activity recovered comparably to that expected for instantaneously reversible inhibitors (Figure 4b).
The solution of the enzyme (1.4 μM) was preincubated with a saturating concentration of inhibitor 6y (25 μM) for 10 min. Then, the enzyme–inhibitor mixture was diluted 20-fold with boric acid buffer, then 50 μL of the mixture was mixed with 50 μL of 2 mM PP solution in ammonium acetate buffer, and recovery of the activity was measured over 20 min. In the control groups, no enzyme/inhibitor was added.

MIF [2] = target: T1, MIF; experiment: Enzyme kinetics of MIF-catalyzed PP conversion (Michaelis-Menten, Lineweaver-Burk); type: biochemical; conditions: for Vmax: 35 nM MIF
Procedure: Enzyme kinetics experiments were performed to determine the mode of MIF inhibition by 6y (SI, Table S1). The rate of MIF-catalyzed PP conversion was measured at concentrations ranging from 0 to 10 mM in the absence or presence of various inhibitor concentrations (0, 1.4 μM, 2.1 μM, or 2.8 μM).
Toward this aim, 10 μL of the inhibitors was added to 190 μL of the enzyme solution and incubated for 10 min. Then, 50 μL of these solutions was mixed with 50 μL of the solutions of the substrate with different concentrations. The reactions were measured by the increase in UV absorbance at 300 nm, and the data from the first 3 min were used to calculate the initial velocities. The negative control (no MIF) was subtracted from all of the data, and the curves were fitted using nonlinear regression, Michaelis–Menten, and linear regression, Lineweaver–Burk. Vmax was defined as the maximum velocity as extrapolated by the curve fit. The Km of PP was defined as the concentration of PP at which 50% of maximum velocity was reached. The data were analyzed using GraphPad Prism 8.
1. Supporting figures and tables
Figure S1. Michaelis-Menten plot of MIF inhibition by 6y at the concentrations 0, 1.4, 2.1 and 2.8 µM.
Table S1. Kinetic parameters of 6y measured at 35nM of MIF.
(1 picture or pasted object on this page, not shown here)

HeLa cells [3] = experiment: Cell viability (MTS) assay, MNNG-induced parthanatos; type: cell-based; conditions: 3 h pretreatment, MNNG 50 μM 15 min, 24 h, MTS, read-out: EC50, protection from MNNG-induced parthanatos
HeLa cells [4] = experiment: Cell death determination by flow cytometry (Hoechst 33342 / PI); type: cell-based; conditions: MNNG 50 μM 15 min, with or without 100 μM inhibitor pretreatment, 24 h
HeLa cells [5] = type: cell-based
MIF/AIF binding = target: T2, MIF/AIF binding (Homo sapiens, UniProt P14174); experiment: MIF/AIF binding ELISA; conditions: MIF-coated plate, his-tagged AIF 4 μM
T2 construct: host or cells: Escherichia coli BL21 (MIF)
T2 sequence (P14174 2-115 limits assumed): T1 sequence (P14174 2-115 limits assumed)
Procedure: Next, we investigated the mechanism by which 6y protects genome DNA. Considering that […] is a crucial step in parthanatos, we tested if 6y interferes with MIF/AIF binding in vitro. […] Under control conditions, MIF and AIF are mainly located in the cytosol. […] Human recombinant untagged MIF was diluted in the binding buffer (Tris-HCl 100 mM, 5 mM MgCl2, 150 mM NaCl, pH 8.5) to a final concentration of 250 nM. 100 μL of MIF solution was used to coat each well of a high-binding 96-well plate overnight at 4 °C. […] After 2 h incubation, the plate was washed three times with washing buffer and incubated with anti-poly-Histidine–peroxidase antibody (Sigma, Amsterdam, the Netherlands) for 30 min. After washing, 100 μL of mixed HRP substrate reagent (R&D Systems, Minneapolis) was added, and the colorizing reaction was stopped by adding 100 μL of 1N sulfuric acid. The absorbance at 450 nm was determined with the correction at […] via a Synergy H1 plate reader.

HeLa cells [6] = experiment: Immunofluorescence staining and confocal microscopy (MIF and AIF nuclear translocation); type: cell-based
Procedure: Next, we investigated the mechanism by which 6y protects genome DNA. Considering that […] is a crucial step in parthanatos, we tested if 6y interferes with MIF/AIF binding in vitro. […] Under control conditions, MIF and AIF are mainly located in the cytosol. Upon MNNG treatment, both MIF and AIF translocated to the nucleus.
Immunofluorescence staining was applied to cells to determine the nuclear trans-localization of AIF and MIF. HeLa cells were seeded onto a coverslip and treated with or without 100 μM 6y for 3 h. Then, parthanatos was induced by MNNG (50 μM, 15 min). The same amount of medium in the absence of MNNG was added for the negative control group. After overnight incubation, the cells were fixed with methanol and blocked with 2% BSA in 0.1% PBS-T. AIF and MIF were detected by AIF Monoclonal Antibody (7F7AB10, Invitrogen) and MIF Polyclonal Antibody (PA5-27343, Invitrogen), respectively. Then, AIF and MIF primary antibodies were visualized by Alexa Fluor 647 conjugated anti-Mouse IgG (Invitrogen) and Alexa Fluor 488 conjugated anti-rabbit IgG (Cell Signaling Technology, Leiden, the Netherlands), respectively. After washing, coverslips were mounted onto objective slides with an anti-fading mounting medium with NucBlue stain (Invitrogen). The pictures were acquired using a Leica SP8 confocal laser scanning microscope and analyzed by ImageJ.

[7] = Solubility observation in the MST experiment; type: physicochemical; conditions: at concentrations higher than 1000 μM, PBS-T with 5% DMSO
Procedure: A microscale thermophoresis (MST) assay was performed to confirm the binding of 6y to MIF. […] Overall, we concluded that 6y binds reversibly to an allosteric binding site that affects MIF tautomerase activity.

O=C(Nc1ccccc1)c1ccc(-n2cc(C(=O)NCc3cccs3)nn2)cc1 [Compound 6y, 1-(4-(Phenylcarbamoyl)phenyl)-N-(thiophen-2-ylmethyl)-1H-1,2,3-triazole-4-carboxamide]
Reversibility of binding to MIF (MIF [1]): reversible | Vmax (MIF [2]; 1.4 μM 6y): 0.21±0.02 abs/min | Vmax (MIF [2]; 2.1 µM 6y): 0.13±0.01 abs/min | Vmax (MIF [2]; 2.8 μM 6y): 0.08±0.01 abs/min | Mode of MIF inhibition (MIF [2]; Lineweaver-Burk plot, 0, 1.4, 2.1, 2.8 μM): noncompetitive | Vmax at highest inhibitor concentration (MIF [2]; decreasing from 0.40 ± 0.03 (control)): 0.08 ± 0.01 absorbance/min | EC50 (HeLa cells [3]): ~8 µM | EC50 (HeLa cells [3]; Homo sapiens): 7.7 ± 2.1 µM | Cells stained by PI (HeLa cells [4]): 20% | MNNG-induced DNA damage (comet assay) (HeLa cells [5]; HeLa, 50 μM 6y 2 h, then 10 μM MNNG 2 h, alkaline conditions): inhibited | Effect of compound alone on genome integrity (comet assay) (HeLa cells [5]; HeLa, without MNNG): did not affect genome integrity | Genomic DNA fragmentation (gel electrophoresis) (HeLa cells [5]; pretreatment, dose and time-dependent): protective effect | IC50 (MIF/AIF binding): 12.3 µM | AIF nuclear translocation upon MNNG stimulation (HeLa cells [6]; 100 μM 6y, MNNG 50 μM 15 min): uninfluenced | MIF nuclear translocation upon MNNG stimulation (HeLa cells [6]; 100 μM 6y, MNNG 50 μM 15 min): blocks MIF nuclear translocation | MIF localization under control conditions (HeLa cells [6]; without MNNG): did not affect MIF localization | Solubility [7]: limited solubility
